Source: patent EP4755886A1 (Chengdu Chipscreen Pharmaceutical Ltd., priority 2023, dated 2025)
Like-named read-outs stand apart in the source and are kept apart here.

Columns and labels:
[1] = test system: gene-editing MTAP-/- human colon cancer cell strain HCT116; assay: Efficacy in MTAP-/- HCT116 subcutaneous xenograft mouse model; type: in vivo, Balb/c nude mice; conditions: 50 mg/kg, PO, qd, 28 days
Experimental: The blank group contained 40% PEG400 normal saline with 2% DMSO. […] The test substance was intragastrically administered at 10 mg/kg once daily, and MRTX1719 was intragastrically administered at 50 mg/kg once daily. Model control: The vehicle (2% DMSO + 40% PEG400 + 58% normal saline) was intragastrically administered at a dose of 10 mL/kg once daily. Administration was performed for 28 days in total. […] The mice were euthanized on the day when the last administration was completed. […] In the formula, VTt represents the tumor volume of the treatment group at each measurement, and VT0 represents the tumor volume measured when the treatment group is grouped; VCt represents the tumor volume of the vehicle group at each measurement (same as VTt), and VC0 represents the tumor volume measured when the vehicle group is grouped. Data were analyzed using GraphPad Prism 9.0 software and expressed as Mean ± SEM (standard error). Pairwise comparisons between each administration group and the control group were performed using one-way analysis of variance (ANOVA). Variance homogeneity was determined using the Brown-Forsythe method, and variance heterogeneity was determined using the Dunnett's T3 method. Table 7. Efficacy evaluation in HCT116 subcutaneous xenograft mouse model

[2] = molecular target: T1, CYP450 enzyme 3A4 (Homo sapiens, UniProt P08684); assay: CYP inhibition test in human liver microsomes; type: in vitro ADME; conditions: human liver microsomes 0.1 mg/mL
T1 construct: Liver microsomes (purchased from BIOIVT, Cat. No.: X008070); tissue BIOIVT X008070; host or cells: human liver microsomes
Experimental: (§1) Experimental materials: human liver microsomes (purchased from BIOIVT);
(§2) PBS: 0.1 M KH2PO4 and K2HPO4 buffers, pH 7.4.
MgCl2: a certain amount of MgCl2 was weighed out and prepared into a 20 mM MgCl2 solution with PBS.
NADPH (Chinese name: reduced nicotinamide adenine dinucleotide phosphate, purchased from Sigma, Cat. No.: 481973-500 mg): a certain amount of NADPH was weighed out and a 5 mM solution of NADPH was prepared with a 20 mM MgCl2 solution, and the final incubation concentration was 1 mM.
Compounds: 3 mM, 1 mM, 0.3 mM, 0.1 mM, 0.03 mM, 0.01 mM, and 0 mM solutions of the test compounds were prepared with a DMSO-methanol (v:v = 1:9) solution, and the final incubation concentrations were 30 µM, 10 µM, 3 µM, 1 µM, 0.3 µM, 0.1 µM, and 0 µM. 30 µM, 10 µM, 3 µM, 1 µM, 0.3 µM, and 0 µM solutions of the positive compound (ketoconazole) were prepared with a DMSO-methanol (v:v = 1:9) solution, and the final incubation concentrations were 0.3 µM, 0.1 µM, 0.03 µM, 0.01 µM, 0.003 µM, and 0 µM.
Substrate working solutions: 200 µM and 15 µM solutions of substrate working solutions (testosterone and midazolam) were prepared with PBS, separately, and the final incubation concentrations were 40 µM and 3 µM.
Liver microsomes (purchased from BIOIVT, Cat. No.: X008070): the liver microsomes were diluted to […] with PBS, and the final incubation concentration was 0.1 mg/mL.
The prepared test compounds or positive compounds were added to a 96-well plate, and then the prepared human liver microsome working solution and substrate working solution were added. The mixture was mixed well. The mixture was pre-incubated in a thermostat incubator at 37 °C for 5 min, and then the prepared NADPH was added to start the reaction. The mixture was incubated for 5 min or 10 min. After the incubation was completed, a pre-cooled acetonitrile solution containing an internal standard was added to terminate the reaction. After protein precipitation, the mixture was vortexed for 5 min with shaking and then centrifuged at 4000 rpm for 10 min. The supernatant was collected and added to the 96-well plate. The content (peak concentration ratio) of the metabolites of the substrate was determined by an LC-MS/MS method. The residual activity and the half maximal inhibitory concentration (IC50) of the enzyme were calculated based on the detected content.
Percentage of remaining enzyme activity: The activity of each subtype of CYP450 enzyme was expressed as the amount of metabolite produced, and the percentage of remaining enzyme activity was calculated as follows: [formula]
The concentrations of the test substances and the corresponding residual activity percentages were fitted using a nonlinear model of Excel software, and the concentration of the test substances at which 50% inhibition of metabolite production was achieved was the IC50 value.

[3] = PK experiment in rats; type: in vivo; conditions: rat; SD male rats, PO 10 mg/kg, vehicle 0.5% MC/0.2% Tween 80, plasma
Experimental: The samples were analyzed by LC-MS/MS. […] Table 6. Pharmacokinetic parameters for rats

[4] = PK experiment in mice; conditions: mouse, plasma, po, 10 mg/kg
Experimental: (§3) Experimental materials: the experimental animals were healthy adult female BALB/c mice (provided by Sichuan Vital River Laboratory Animal Technology Co., Ltd.).
(§4) Administration mode and sample collection in mice: BALB/c female mice received oral intragastrical administration (10 mg/kg, vehicle: 0.5% methylcellulose/0.2% Tween 80), and 60 µL of whole blood from the venous plexus of the fundus of the mice at different time points was collected at 0.25 h, 0.5 h, 1 h, 2 h, 4 h, 6 h, 8 h, and 24 h after administration and centrifuged at 4000 rpm for 6 min to collect plasma.
(§5) 10 µL of mouse plasma sample was added to 190 µL of acetonitrile solution containing an internal standard to precipitate protein. The mixture was vortexed for 10 min and centrifuged at 4000 rpm for 10 min. The supernatant was collected and added to a 96-well plate. The samples were analyzed by LC-MS/MS. The drug concentrations in the plasma of mice at different time points after intragastric administration of the example compounds were measured by an LC-MS/MS method, and the related pharmacokinetic parameters were calculated, such that the pharmacokinetic behavior of the compounds in the mice was studied, and the pharmacokinetic characteristics were evaluated.

[5] = molecular target: T2, hERG (Homo sapiens, UniProt Q12809); assay: hERG test (Predictor hERG Fluorescence Polarization Assay Kit); type: binding
T2 construct: purchased ThermoFisher Scientific PV5365
Experimental: Predictor™ hERG Fluorescence Polarization Assay Kit (ThermoFisher Scientific, PV5365).
The procedures in the kit instructions were followed: 4× Predictor™ hERG Tracer Red, 4× E-4031, and 4× test substance solutions (final assay concentration: 10 µM) were prepared in advance. 5 µL Predictor™ hERG FP Assay Buffer and 5 µL Predictor™ hERG Membrane were added sequentially to the Assay Blank group in a 384-well plate. 2.5 µL Predictor™ hERG FP Assay Buffer, 2.5 µL of 4× E-4031, and 2.5 µL of 4× test substance were added to the negative control group, the positive control group, and the test substance group, respectively, and then 5 µL Predictor™ hERG Membrane and 2.5 µL of 4× Predictor™ hERG Tracer Red were sequentially added. The total volume of the experimental system was 10 µL, and three duplicate wells were set for each group. After loading, the plate was gently tapped to mix well and incubated at room temperature (25 °C) in the dark for 3.5 h. After the incubation was completed, the fluorescence polarization value mP was measured on a microplate reader, and G Factor was 2.14.
The inhibition rate of the test substance was calculated using the following formula: [formula]

[6] = test system: human large cell lung cancer cell line LU99; assay: Efficacy in LU99 xenograft mouse model; type: in vivo, Balb/c nude mice; conditions: 50 mg/kg, PO, qd, 28 days
Experimental: The human large cell lung cancer cell line LU99 was purchased from Nanjing Cobioer Biosciences Co., Ltd. (CBP61512) and cultured in RPMI-1640 medium (Gibco) containing 10% fetal bovine serum (Gibco); the test substances were prepared into suspensions at concentrations of 0.3 mg/mL, 1 mg/mL, and 5 mg/mL using a 0.5% aqueous MC solution containing 0.2% Tween 80. Reference Example 6 (MRTX1719) was prepared into a 5 mg/mL clear solution using 40% PEG400 normal saline containing 2% DMSO.
LU99 cells in the logarithmic growth phase were digested, collected, and counted, and the cell density was adjusted to 2 × 10^7 cells/mL using a 1:1 serum-free medium and matrigel (Corning). 18-20 g of Balb/c nude mice (Beijing Huafukang Biotechnology Co., Ltd.) were inoculated subcutaneously with 100 µL of cell suspension per mouse. On day 12 after inoculation, animals with a mean tumor volume of 116 mm^3 were randomly grouped, with 7 animals in each group. The test substances were intragastrically administered at 3 mg/kg, 10 mg/kg, and 50 mg/kg once daily, and MRTX1719 was intragastrically administered at 50 mg/kg once daily. A vehicle (2% DMSO + 40% PEG400 + 58% normal saline) was intragastrically administered to the blank group at a dose of 10 mL/kg once daily. Administration was performed for 28 days in total.
After the animals were inoculated with LU99 cells, the tumor volume was measured 2-3 times a week, and the tumor volume was calculated based on length × width^2 × 0.5. On the day when the last administration was completed, except for the mice with tumor regression, which were subjected to discontinuation observation, the remaining mice were euthanized.
In the formula, VTt represents the tumor volume of the treatment group at each measurement, and VT0 represents the tumor volume measured when the treatment group is grouped; VCt represents the tumor volume of the model control group at each measurement, and VC0 represents the tumor volume measured when the model control group is grouped.
Data were analyzed using GraphPad Prism 9.0 software and expressed as Mean ± SEM (standard error). Pairwise comparisons between each administration group and the model control group were performed using one-way analysis of variance (ANOVA). Variance homogeneity was determined using the Brown-Forsythe method, and variance heterogeneity was determined using the Dunnett's T3 method. Table 8. Efficacy evaluation in LU99 xenograft mouse model

[7] = Human liver microsome stability; type: in vitro ADME; conditions: pH 7.4; human liver microsomes 0.5 mg/mL, compound 1 µM, NADPH 1 mM, 37 °C
Experimental: as §1, §2
MgCl2: a certain amount of MgCl2 was weighed out and prepared into a 16 mM MgCl2 solution with PBS.
NADPH (Chinese name: reduced nicotinamide adenine dinucleotide phosphate, purchased from Sigma, Cat. No.: 481973-500 mg): a certain amount of NADPH was weighed out and a 4 mM solution of NADPH was prepared with a 16 mM MgCl2 solution, and the final incubation concentration was 1 mM.
Compounds: 4 µM solutions of the test compounds and positive compounds were prepared with PBS, and the final incubation concentration was 1 µM.
Liver microsomes (purchased from BIOIVT, Cat. No.: X008070): the liver microsomes were diluted to […] with PBS, and the final incubation concentration was 0.5 mg/mL.
The prepared test compound or positive compound was added to a test tube, and then the prepared NADPH was added. The mixture was mixed well. The mixture was pre-incubated in a thermostat incubator at 220 rpm at 37 °C for 5 min, and the prepared liver microsomes were added to start the reaction. All steps were performed in replicate wells. At 0 min, 15 min, 30 min, 45 min, and 60 min, a certain volume of glacial acetonitrile solution containing an internal standard was added to the corresponding tube to precipitate the protein. The mixture was vortexed for 5 min with shaking, and then centrifuged at 4000 rpm for 10 min. […] The samples were analyzed by LC-MS/MS.
The concentrations (peak area ratios) of the example compounds were determined by LC-MS/MS. Rate constants were obtained by plotting "Ln (residual amount of compound %)" versus "incubation time" in Excel, thereby calculating the half-lives and intrinsic clearances of the drugs and providing a basis for the prediction of the in-vivo clearance.
[formula] CLH = CLint × fu × Qh /(CLint×fu+Qh) [formula]
Stability in human liver microsomes

[8] = test system: wild-type HCT-116 cells; assay: Cell proliferation (MTS), wild-type HCT-116; type: cell-based; conditions: Homo sapiens, 240 h; wild-type HCT-116, 10 days with compound, MTS reading; read-out: IC50 HCT116 WT
How it was run: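 Wild-type HCT-116 cells were seeded at 100 cells/well in McCoy's 5A/10% FBS. From day 1 they were treated with compound in 3-fold dilutions (initial 20 µM, 8 points) for 10 days at 37° C. Proliferation was read by MTS on day 11, and IC50 was obtained from a four-parameter logistic fit.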

[9] = test system: MTAP^-/- HCT-116 cells; assay: Cell proliferation (MTS), MTAP-/- HCT-116; type: cell-based, human; conditions: for Selectivity: HCT116 WT IC50 relative to HCT116 MTAP-/- IC50; for IC50: Homo sapiens, 240 h, MTAP-/- HCT-116, 10 days with compound, MTS reading, read-out: IC50 HCT116 MTAP-/-
How it was run: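 MTAP-/- (CRISPR/Cas9 biallelic knockout) or wild-type HCT-116 cells seeded at 100 cells/well, treated next day with 8-point 3-fold dilutions (top 20 µM) for 10 days at 37 °C, 5% CO2. Viability read by MTS; IC50 from four-parameter logistic fit of inhibition rate vs log concentration.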

[10] = in vivo; conditions: mouse, po, 10 mg/kg
Experimental: as §3, §4, §5

[11] = substrate midazolam 3 µM, read-out: IC50 3A4-Midazolam
[12] = substrate testosterone 40 µM, read-out: IC50 3A4-Testosterone

T1 sequence (P08684 whole entry): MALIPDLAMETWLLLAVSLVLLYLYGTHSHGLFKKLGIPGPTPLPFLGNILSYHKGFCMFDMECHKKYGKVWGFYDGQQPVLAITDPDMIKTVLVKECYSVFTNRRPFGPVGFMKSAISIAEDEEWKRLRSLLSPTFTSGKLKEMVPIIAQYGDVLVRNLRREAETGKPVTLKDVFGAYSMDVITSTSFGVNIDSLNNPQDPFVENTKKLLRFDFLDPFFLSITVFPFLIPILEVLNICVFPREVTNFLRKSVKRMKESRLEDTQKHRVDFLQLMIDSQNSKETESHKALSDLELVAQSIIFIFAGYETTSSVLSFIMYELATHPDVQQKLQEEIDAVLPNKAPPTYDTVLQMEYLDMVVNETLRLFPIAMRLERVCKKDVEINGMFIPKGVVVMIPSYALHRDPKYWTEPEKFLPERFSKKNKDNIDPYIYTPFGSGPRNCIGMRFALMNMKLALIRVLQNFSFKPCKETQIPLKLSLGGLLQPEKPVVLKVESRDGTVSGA
T2 sequence (Q12809 whole entry): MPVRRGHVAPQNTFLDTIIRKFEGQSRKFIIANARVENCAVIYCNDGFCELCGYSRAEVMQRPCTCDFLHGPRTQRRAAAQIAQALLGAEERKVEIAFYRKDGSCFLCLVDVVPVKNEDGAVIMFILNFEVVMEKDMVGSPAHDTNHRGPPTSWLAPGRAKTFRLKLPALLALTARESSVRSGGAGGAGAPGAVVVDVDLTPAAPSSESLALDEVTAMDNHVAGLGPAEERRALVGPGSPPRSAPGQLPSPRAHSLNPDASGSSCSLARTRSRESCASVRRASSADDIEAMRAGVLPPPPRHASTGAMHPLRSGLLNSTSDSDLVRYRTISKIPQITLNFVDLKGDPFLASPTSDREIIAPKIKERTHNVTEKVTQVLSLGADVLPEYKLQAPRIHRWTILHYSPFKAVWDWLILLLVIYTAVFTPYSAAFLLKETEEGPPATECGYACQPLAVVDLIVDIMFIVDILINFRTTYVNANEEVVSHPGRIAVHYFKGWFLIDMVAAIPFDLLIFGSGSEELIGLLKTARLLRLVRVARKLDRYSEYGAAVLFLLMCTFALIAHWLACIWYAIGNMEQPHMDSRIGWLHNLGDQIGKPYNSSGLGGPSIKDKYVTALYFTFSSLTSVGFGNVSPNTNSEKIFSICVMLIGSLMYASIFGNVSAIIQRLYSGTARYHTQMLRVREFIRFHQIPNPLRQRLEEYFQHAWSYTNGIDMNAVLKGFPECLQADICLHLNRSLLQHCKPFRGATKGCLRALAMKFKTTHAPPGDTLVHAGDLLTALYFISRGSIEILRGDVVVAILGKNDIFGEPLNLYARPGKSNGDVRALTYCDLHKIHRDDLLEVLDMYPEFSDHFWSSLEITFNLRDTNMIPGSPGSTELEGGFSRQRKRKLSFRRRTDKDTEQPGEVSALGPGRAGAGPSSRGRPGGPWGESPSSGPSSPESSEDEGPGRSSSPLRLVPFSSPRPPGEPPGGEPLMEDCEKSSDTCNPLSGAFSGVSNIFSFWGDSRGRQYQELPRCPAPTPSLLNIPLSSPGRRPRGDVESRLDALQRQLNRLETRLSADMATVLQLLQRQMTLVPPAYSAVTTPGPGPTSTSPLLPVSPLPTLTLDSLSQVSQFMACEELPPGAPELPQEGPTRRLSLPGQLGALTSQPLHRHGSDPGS

half-life at 1 µM [7] [h] | IC50 [8] [nM] | AUC(0-t) ([4]; female, BALB/c) [ng·h/mL] | Cmax ([4]; female, BALB/c) [ng/mL] | IC50 [9] [nM] | AUC(0-t) [10] [ng·h/mL] | Cmax [10] [ng/mL] | Structure (SMILES) | TGI [1] [%] | Tumor volume [1] [mm^3] | IC50 [2, 11] [nM] | IC50 [2, 12] [nM] | AUC(0-t) [3] [ng·h/mL] | Cmax [3] [ng/mL] | AUC(0-t) [4] [ng·h/mL] | Cmax [4] [ng/mL] | inhibition at 3.5 h, 10 µM ([5]; herg membrane fluorescence polarization, 10 µM test substance, three duplicate wells) [%] | IC50 ([5]; only 10 µM tested) [nM] | TGI [6] [%] | Tumor volume [6] [mm^3] | Selectivity [9]
– | – | – | – | – | – | – | Cn1ncc(-c2ccc3c(=O)[nH]nc(CN)c3c2)c1-c1c(F)c(Cl)cc(OC2CC2)c1C#N (atropisomer, axis not shown) [Reference Example 6, reference compound] | 72.21 | 525.74 | 2130 | 1950 | 100 ± 103 | 107 ± 149 | 1970 ± 316 | 428 ± 220 | 77.4 | < 10000 | 90.96 | 279.68 | –
1.05 | 483 | 10100 ± 3500 | 793 ± 28 | 4.6 | – | – | CN(C(=O)c1cc2c3c(c(N)nc2cc1Cl)COC3)[C@@H]1COc2cc(C#Cc3cnn(C)c3)ccc21 [Compound 40A, (S)-4-amino-7-chloro-N-methyl-N-(6-((1-methyl-1H-pyrazol-4-yl)ethynyl)-2,3-dihydrobenzofuran-3-yl)-1,3-dihydrofuro[3,4-c]quinoline-8-carboxamide] | – | – | > 30000 | > 30000 | – | – | – | – | – | – | – | – | 105
– | 196 | – | – | 2.6 | 14100 ± 4740 | 1430 ± 195 | [2H]C([2H])([2H])n1cc(C#Cc2ccc3c(c2)OC[C@H]3N(C)C(=O)c2cc3c(cc2F)nc(N)c2cnn(C)c23)cn1 [Compound 82A, (S)-4-amino-7-fluoro-N,1-dimethyl-N-(6-((1-(methyl-D3)-1H-pyrazol-4-yl)ethynyl)-2,3-dihydrobenzofuran-3-yl)-1H-pyrazolo[4,3-c]quinoline-8-carboxamide] | – | – | – | – | – | – | – | – | – | – | – | – | 75
– | 1080 | – | – | 8.7 | 15300 ± 2940 | 1480 ± 187 | [2H]C([2H])([2H])N(C(=O)c1cc2c3c(c(N)nc2cc1Cl)COC3)[C@@H]1COc2cc(C#Cc3cnn(C4CC4)c3)ccc21 [Compound 86A, (S)-4-amino-7-chloro-N-(6-((1-cyclopropyl-1H-pyrazol-4-yl)ethynyl)-2,3-dihydrobenzofuran-3-yl)-N-(methyl-D3)-1,3-dihydrofuro[3,4-c]quinoline-8-carboxamide] | – | – | – | – | – | – | – | – | – | – | – | – | 124
